According to patent publication US8877801B2, “Compounds and compositions as selective estrogen receptor degraders” (Novartis AG, priority 2013, dated 2014):

molecular target: T1, ER (Homo sapiens, UniProt P03372); experiment: ER transcription assay (MCF7 cells), ERE-luciferase reporter; format: cell-based; details: MCF7 cells, ER reporter gene, 0.1 nM 17β estradiol, 24 hours; read-out: MCF7 IC50 (inflection point of the inhibition of transcription in MCF7 cells)
T1 construct: transfected in MCF7 cells (containing endogenous ER); endogenous in cells; host or cells: MCF7 cells
T1 sequence (P03372 1-595): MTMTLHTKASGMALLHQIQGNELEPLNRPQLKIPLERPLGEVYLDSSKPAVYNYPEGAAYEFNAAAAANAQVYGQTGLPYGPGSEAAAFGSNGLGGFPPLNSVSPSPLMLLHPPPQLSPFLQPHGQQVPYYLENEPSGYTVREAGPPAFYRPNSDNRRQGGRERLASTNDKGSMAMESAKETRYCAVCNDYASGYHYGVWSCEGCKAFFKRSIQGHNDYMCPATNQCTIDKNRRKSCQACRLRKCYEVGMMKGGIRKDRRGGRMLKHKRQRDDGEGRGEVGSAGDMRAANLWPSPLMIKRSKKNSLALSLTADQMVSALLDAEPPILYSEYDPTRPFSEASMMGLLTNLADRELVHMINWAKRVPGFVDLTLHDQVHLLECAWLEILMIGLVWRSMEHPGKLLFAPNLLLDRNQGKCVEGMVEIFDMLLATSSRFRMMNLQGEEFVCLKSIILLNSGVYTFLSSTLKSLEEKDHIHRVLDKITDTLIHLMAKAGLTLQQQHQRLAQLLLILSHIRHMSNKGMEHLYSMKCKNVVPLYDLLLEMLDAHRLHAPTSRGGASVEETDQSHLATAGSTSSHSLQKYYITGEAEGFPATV
Text: ER Transcription Assay (MCF7 Cells)
The ER transcription assay is a reporter assay that is based on the ability of ER to induce transcription from a luciferase reporter gene containing estrogen response elements (EREs) in the promoter/enhancer region. When the reporter gene is transfected in MCF7 cells (containing endogenous ER), transcription is reflected by the level of luciferase expression.
A day before transfection, cells are split into a T75 flask at a cell density of 300,000 cells/mL (10 mL total) and allowed to attach overnight in a humidified CO2 incubator at 37° C.
Approximately 20 ug DNA is mixed in OptiMEM (Invitrogen) to a total volume of 650 μL. Following incubation, the OptiMEM-DNA mixture is added to the OptiMEM-Lipofectin mix and incubated for 15 minutes at 37° C. The DNA-Lipofectin mixture is then added directly to the T75 flask and the flask is returned to the incubator.
After overnight incubation, compound is added to individual wells of a 96-well plate in a 10 μL volume of media at 10× concentration along with 17β estradiol whose final concentration is 0.1 nM. Normally, DMSO (used as a vehicle) is included to achieve a final concentration of 0.1% when added to the cells. Transfected cells are trypsinized, resuspended in DMEM/F12/10% charcoal-stripped serum and added to the 96-well plate at 25,000 cells/well in 90 μL of media. The plate is then returned to the incubator for 24 hours.
After incubation with compounds for 24 hours, Firefly and Renilla luciferase activities are measured to determine ER transcriptional activity. Media is removed from 96-well plates by decanting and blotting on paper towels.
One second total read time after a one second delay.
One second total read time after one second delay. If Firefly luciferase signal is high, Renilla assay must be done an hour after the Firefly assay due to incomplete squelching of Firefly signal.
The data describing the antagonist and degradation properties for the examples is compiled in table 10. The column titled MCF7 IC50 reports the inflection point of the inhibition of transcription in MCF7 cells as described above. Percentage ERα remaining reports the remaining ERα protein measured at 10 μM concentration of the ligand as described above. The column ERα IC50 reports the inflection point of the degradation in response to the ligand concentration.

| Compound | IC50 |
| --- | --- |
| O=C(O)CCc1ccc(Oc2c(-c3ccc(O)cc3)sc3cc(O)ccc23)cc1 [Example 1, 3-(4-((6-hydroxy-2-(4-hydroxyphenyl)benzo[b]thiophen-3-yl)oxy)phenyl)propanoic acid] | 457 nM |
| O=C(O)/C=C/c1ccc(Oc2c(-c3ccc(C(F)(F)F)cc3)sc3cc(O)ccc23)cc1 [Example 3, (E)-3-(4-((6-hydroxy-2-(4-(trifluoromethyl)phenyl)benzo[b]thiophen-3-yl)oxy)phenyl)acrylic acid] | 941 nM |
| CC(C)c1ccccc1-c1sc2cc(O)ccc2c1Oc1ccc(/C=C/C(=O)O)cc1 [Example 4, (E)-3-(4-((6-hydroxy-2-(2-isopropylphenyl)benzo[b]thiophen-3-yl)oxy)phenyl)acrylic acid] | 6 nM |
| Cc1ccccc1-c1sc2cc(O)ccc2c1Oc1ccc(/C=C/C(=O)O)cc1 [Example 5, (E)-3-(4-((6-hydroxy-2-(o-tolyl)benzo-[b]thiophen-3-yl)oxy)-phenyl)acrylic acid] | 89 nM |
| O=C(O)/C=C/c1ccc(Oc2c(-c3ccc(Cl)cc3)sc3cc(O)ccc23)cc1 [Example 6, (E)-3-(4-((2-(4-chlorophenyl)-6-hydroxybenzo[b]-thiophen-3-yl)oxy)phenyl)-acrylic acid] | 3100 nM |
| O=C(O)/C=C/c1ccc(Oc2c(-c3cccc(F)c3)sc3cc(O)ccc23)cc1 [Example 7, (E)-3-(4-((2-(3-fluorophenyl)-6-hydroxybenzo[b]-thiophen-3-yl)oxy)phenyl)-acrylic acid] | 713 nM |
| O=C(O)/C=C/c1ccc(Oc2c(-c3ccccc3C(F)(F)F)sc3cc(O)ccc23)cc1 [Example 8, (E)-3-(4-((6-hydroxy-2-(2-(trifluoromethyl)-phenyl)benzo[b]-thiophen-3-yl)oxy)phenyl)-acrylic acid] | 23 nM |
| O=C(O)/C=C/c1ccc(Oc2c(-c3ccccc3Cl)sc3cc(O)ccc23)cc1 [Example 9, (E)-3-(4-((2-(2-chlorophenyl)-6-hydroxybenzo[b]-thiophen-3-yl)oxy)phenyl)-acrylic acid] | 407 nM |
| Cc1cc(C(F)(F)F)ccc1-c1sc2cc(O)ccc2c1Oc1ccc(/C=C/C(=O)O)cc1 [Example 10, (E)-3-(4-((6-hydroxy-2-(2-methyl-4-(tri-fluoromethyl)phenyl)-benzo[b]thiophen-3-yl)oxy)phenyl)acrylic acid] | 207 nM |
| O=C(O)/C=C/c1ccc(Oc2c(-c3ccc(C(F)(F)F)cc3C(F)(F)F)sc3cc(O)ccc23)cc1 [Example 11, (E)-3-(4-((2-(2,4-bis(trifluoromethyl)-phenyl)-6-hydroxy-benzo[b]thiophen-3-yl)oxy)phenyl)-acrylic acid] | 53 nM |
| Cc1cccc(-c2sc3cc(O)ccc3c2Oc2ccc(/C=C/C(=O)O)cc2)c1C [Example 13, (E)-3-(4-((2-(2,3-dimethylphenyl)-6-hydroxybenzo[b]-thiophen-3-yl)oxy)phenyl)-acrylic acid] | 151 nM |
| Cc1ccc(C)c(-c2sc3cc(O)ccc3c2Oc2ccc(/C=C/C(=O)O)cc2)c1 [Example 14, (E)-3-(4-((2-(2,5-dimethylphenyl)-6-hydroxybenzo[b]-thiophen-3-yl)oxy)phenyl)-acrylic acid] | 238 nM |
| Cc1noc(C)c1-c1sc2cc(O)ccc2c1Oc1ccc(/C=C/C(=O)O)cc1 [Example 15, (E)-3-(4-((2-(3,5-dimethylisoxazol-4-yl)-6-hydroxybenzo-[b]thiophen-3-yl)oxy)-phenyl)acrylic acid] | 404 nM |
| Cc1c(O)cccc1-c1sc2cc(O)ccc2c1Oc1ccc(/C=C/C(=O)O)cc1 [Example 16, (E)-3-(4-((6-hydroxy-2-(3-hydroxy-2-methyl-phenyl)benzo[b]-thiophen-3-yl)oxy)phenyl)-acrylic acid] | 128 nM |
| CCc1ccccc1-c1sc2cc(O)ccc2c1Oc1ccc(/C=C/C(=O)O)cc1 [Example 18, (E)-3-(4-((2-(2-ethylphenyl)-6-hydroxybenzo[b]-thiophen-3-yl)oxy)phenyl)-acrylic acid] | 36 nM |
| CC(=O)c1ccccc1-c1sc2cc(O)ccc2c1Oc1ccc(/C=C/C(=O)O)cc1 [Example 19, (E)-3-(4-((2-(2-acetylphenyl)-6-hydroxybenzo[b]-thiophen-3-yl)oxy)phenyl)-acrylic acid] | 218 nM |
| CC(C)(C)c1ccccc1-c1sc2cc(O)ccc2c1Oc1ccc(/C=C/C(=O)O)cc1 [Example 20, (E)-3-(4-((2-(2-(tert-butyl)phenyl)-6-hydroxybenzo[b]-thiophen-3-yl)oxy)phenyl)-acrylic acid] | 36 nM |
| O=C(O)/C=C/c1ccc(Oc2c(-c3ccccc3[N+](=O)[O-])sc3cc(O)ccc23)cc1 [Example 21, (E)-3-(4-((6-hydroxy-2-(2-nitrophenyl)-benzo[b]thiophen-3-yl)oxy)phenyl)-acrylic acid] | 313 nM |
| CC(C)(C)c1ccc(-c2sc3cc(O)ccc3c2Oc2ccc(/C=C/C(=O)O)cc2)cc1 [Example 22, (E)-3-(4-((2-(4-(tert-butyl)phenyl)-6-hydroxybenzo[b]-thiophen-3-yl)oxy)phenyl)-acrylic acid] | 853 nM |
| Cc1cc(C)cc(-c2sc3cc(O)ccc3c2Oc2ccc(/C=C/C(=O)O)cc2)c1 [Example 23, (E)-3-(4-((2-(3,5-dimethylphenyl)-6-hydroxybenzo[b] - thiophen-3-yl)oxy)phenyl)-acrylic acid] | 748 nM |
| C[C@H](O)c1ccccc1-c1sc2cc(O)ccc2c1Oc1ccc(/C=C/C(=O)O)cc1 [Example 25, (S,E)-3-(4-((6-hydroxy-2-(2-(1-hydroxyethyl)phenyl)-benzo[b]thiophen-3-yl)oxy)phenyl)acrylic acid] | 179 nM |
| COc1ccc(-c2sc3cc(O)ccc3c2Oc2ccc(/C=C/C(=O)O)cc2)cc1 [Example 26, (E)-3-(4-((6-hydroxy-2-(4-methoxyphenyl)benzo[b]thiophen-3-yl)oxy)phenyl)acrylic acid] | 647 nM |
| O=C(O)/C=C/c1ccc(Oc2c(-c3ccc(C(F)F)cc3)sc3cc(O)ccc23)cc1 [Example 27, (E)-3-(4-((2-(4-(difluoromethyl)phenyl)-6-hydroxybenzo[b]thiophen-3-yl)oxy)phenyl)acrylic acid] | 7970 nM |
| C/C(=C\c1ccc(Oc2c(-c3ccc(O)cc3)sc3cc(O)ccc23)cc1)C(=O)O [Example 28, (E)-3-(4-((6-hydroxy-2-(4-hydroxyphenyl)benzo[b]thiophen-3-yl)oxy)phenyl)-2-methylacrylic acid] | 886 nM |
| O=C(O)/C=C/c1ccc(Oc2c(-c3ccc(O)cc3)sc3cc(O)ccc23)cn1 [Example 29, (E)-3-(5-((6-hydroxy-2-(4-hydroxyphenyl)benzo[b]thiophen-3-yl)oxy)pyridin-2-yl)acrylic acid] | 7750 nM |
| CN(c1ccc(/C=C/C(=O)O)cc1)c1c(-c2ccc(O)cc2)sc2cc(O)ccc12 [Example 30, (E)-3-(4-((6-hydroxy-2-(4-hydroxyphenyl)benzo[b]thiophen-3-yl)(methyl)amino)phenyl)acrylic acid] | 3400 nM |
| O=C(/C=C/c1ccc(Oc2c(-c3ccc(O)cc3)sc3cc(O)ccc23)cc1)NCCC(F)(F)F [Example 31, (E)-3-(4-((6-hydroxy-2-(4-hydroxyphenyl)benzo[b]thiophen-3-yl)oxy)phenyl)-N-(3,3,3-trifluoropropyl)acrylamide] | 10 nM |
| Cc1cc(F)ccc1-c1sc2cc(O)ccc2c1Oc1ccc(/C=C/C(=O)NO)cc1 [Example 32, (E)-3-(4-((2-(4-fluoro-2-methylphenyl)-6-hydroxybenzo[b]thiophen-3-yl)oxy)phenyl)-N-hydroxyacrylamide] | 15 nM |
